Assay results: article PMC6343074, “New Irreversible α‐L‐Iduronidase Inhibitors and Activity‐Based Probes” (Chemistry (Weinheim an Der Bergstrasse, Germany), 2018)

Legend:
[1] = target: T1, rIDUA (human recombinant α-L-iduronidase, Aldurazyme) (Homo sapiens, UniProt P35475); assay: fluorogenic 4-MU-IdoA activity assay; format: biochemical; conditions: pH 4.5, 60 min incubation, competition with 4-MU-IdoA; covalent; read-out: apparent IC50
T1 construct: gene IDUA; therapeutic recombinant enzyme (Aldurazyme, Genzyme), secreted lysosomal glycoprotein; chymotryptic active-site peptide Asn297-Leu303 with nucleophile Glu299
T1 sequence (P35475 28-653): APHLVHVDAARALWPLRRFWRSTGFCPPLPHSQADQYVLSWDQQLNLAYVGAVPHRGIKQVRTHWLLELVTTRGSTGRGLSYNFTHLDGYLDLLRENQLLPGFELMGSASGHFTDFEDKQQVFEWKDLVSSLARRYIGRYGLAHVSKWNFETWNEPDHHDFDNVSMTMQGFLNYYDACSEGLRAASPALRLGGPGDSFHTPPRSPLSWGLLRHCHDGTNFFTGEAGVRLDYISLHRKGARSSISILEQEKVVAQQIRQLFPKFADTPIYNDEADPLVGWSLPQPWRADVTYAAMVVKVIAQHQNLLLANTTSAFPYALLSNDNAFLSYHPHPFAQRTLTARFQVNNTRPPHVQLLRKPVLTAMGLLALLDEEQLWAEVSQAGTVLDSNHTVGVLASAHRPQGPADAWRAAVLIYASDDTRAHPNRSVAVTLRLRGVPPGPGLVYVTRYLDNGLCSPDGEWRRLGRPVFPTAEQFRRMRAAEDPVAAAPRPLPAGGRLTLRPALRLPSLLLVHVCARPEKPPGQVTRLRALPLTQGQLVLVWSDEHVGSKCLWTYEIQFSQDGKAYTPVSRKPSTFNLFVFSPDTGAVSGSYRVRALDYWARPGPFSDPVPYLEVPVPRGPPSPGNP

[2] = target: T1, rIDUA (human recombinant α-L-iduronidase, Aldurazyme); assay: biochemical; set-up: residual rIDUA activity after 1 h preincubation, fluorogenic 4-MU-alpha-L-IdoA substrate, pH 4.5, apparent IC50
Experimental: Apparent IC50 values of inhibitors and ABPs on recombinant human iduronidase and cell lysates Inhibitors and ABPs were diluted at various concentrations in 12.5 µL assay buffer and incubated with 12.5 µL rIDUA (5.8 ng, or 70 fmol) or fibroblast lysates (50 µg protein), both diluted in assay buffer, at 37°C for 1 h (rIDUA) or 4 h (fibroblasts lysates), at 1% (v/v) DMSO concentration. This was followed by iduronidase activity assay (30 min incubation time) described in the previous section. The detected 4-MU fluorescence at each concentration for each compound were normalized to the fluorescence from the control sample without inhibitor, and data were fitted with [inhibitor] vs response – variable slope (four parameters) function in Graphpad Prism 7.0 software to obtain apparent IC50 values. Iduronidase activity assay using 4-MU-α-L-IdoA as substrate Samples containing enzyme were diluted in assay buffer (150 mM citrate/Na2HPO4, pH 4.5, supplemented with 0.1% (v/v) Triton X-100, 0.15 M NaCl, 33 mM CaCl2, 33 mM MgCl2), and load onto a black flat-bottom 96-well plate (Greiner) in triplicates of 25 µL per well. Negative controls (blank) were prepared by substituting enzyme samples with buffer. For reaction, samples were added with 25 µL of 360 µM 4-MU-α-L-IdoA1 (prepared in assay buffer supplemented with 0.1 % (w/v) bovine serum albumin (BSA)), and incubated at 37°C for 30 min to 4h. […]

Structure (SMILES) | IC50 [1] [µM] | IC50 [2] [µM]
[N-]=[N+]=NCCCCCCCCN1[C@@H]2[C@@H](C(=O)O)[C@@H](O)[C@H](O)[C@@H](O)[C@@H]21 (stereo partly drawn) [compound 1, inhibitor 1] | 40.6 ± 17 | –
OC[C@H]1[C@@H](O)[C@H](O)[C@@H](O)[C@@H]2N[C@H]12 [compound 11, aziridine 11] | – | > 100
[N-]=[N+]=NCCCCCCCCN1[C@@H]2[C@@H](CO)[C@@H](O)[C@H](O)[C@@H](O)[C@@H]21 (stereo partly drawn) [compound 12, alkyl aziridine 12] | 12.2 ± 3.24 | –
